Consider 25 molecules from ChEMBL document CHEMBL4330140, “Novel human adenosine receptor antagonists based on the 7-amino-thiazolo[5,4-d]pyrimidine scaffold. Structural investigations at the 2-, 5- and 7-positions to enhance affinity and tune selectivity” (Bioorg Med Chem Lett, 2019).

Test [1] addresses T1, Adenosine receptor A2a (Homo sapiens, UniProt P29274). Kind of test: Antagonist activity at human adenosine A2A receptor expressed in CHO cells assessed as inhibition of NECA-induced increase in cAMP accumulation preincubated for 10 mins followed by NECA addition by GloSensor cAMP assay. It is filed as functional, cell-based.
In test [2] the target is T2, Adenosine receptor A3 (Homo sapiens, UniProt P0DMS8).
T2 sequence (P0DMS8 whole entry): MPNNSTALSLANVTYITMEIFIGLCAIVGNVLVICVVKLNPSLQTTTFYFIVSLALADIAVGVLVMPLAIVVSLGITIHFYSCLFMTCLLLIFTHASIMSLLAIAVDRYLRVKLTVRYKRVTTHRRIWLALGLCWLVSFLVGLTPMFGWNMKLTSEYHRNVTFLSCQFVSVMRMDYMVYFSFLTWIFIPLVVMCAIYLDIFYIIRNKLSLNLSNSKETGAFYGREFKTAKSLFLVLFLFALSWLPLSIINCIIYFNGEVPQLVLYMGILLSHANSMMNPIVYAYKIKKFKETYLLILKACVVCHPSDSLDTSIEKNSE
Kind of test: Displacement of [3H]HEMADO from human adenosine A3 receptor expressed in CHO cells after 3 hrs by scintillation counting method. The class given is cell-based. (In general: Displacement assays read how much labelled ligand stays bound in the presence of the test substance.)

The species named for test [3] is Homo sapiens. Kind of test: Selectivity ratio of Ki for displacement of [3H]HEMADO from human adenosine A3 receptor expressed in CHO cells to Ki for displacement of [3H]NECA from human adenosine A2A receptor expressed in CHO cells. It is filed as cell-based.
For test [4], the species on record is Homo sapiens. Kind of test: Selectivity ratio of Ki for displacement of [3H]CCPA from human adenosine A1 receptor expressed in CHO cells to Ki for displacement of [3H]NECA from human adenosine A2A receptor expressed in CHO cells. The class given is cell-based.
The target of test [5] is T3, Adenosine receptor A1 (Homo sapiens, UniProt P30542).
T3 sequence (P30542 whole entry): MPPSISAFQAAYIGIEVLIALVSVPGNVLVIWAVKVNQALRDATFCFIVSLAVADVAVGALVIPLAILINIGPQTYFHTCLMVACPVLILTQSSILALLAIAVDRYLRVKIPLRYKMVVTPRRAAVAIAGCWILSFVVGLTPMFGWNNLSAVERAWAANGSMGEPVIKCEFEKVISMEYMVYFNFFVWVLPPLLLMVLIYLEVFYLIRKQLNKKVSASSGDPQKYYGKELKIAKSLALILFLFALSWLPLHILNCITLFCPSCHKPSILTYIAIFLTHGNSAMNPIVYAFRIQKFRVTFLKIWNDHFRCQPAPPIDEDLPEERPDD
Kind of test: Displacement of [3H]CCPA from human adenosine A1 receptor expressed in CHO cells after 3 hrs by scintillation counting method. It is filed as cell-based.

Test [6] has as its target T4, Adenosine receptor A2b (Homo sapiens, UniProt P29275).
T4 sequence (P29275 whole entry): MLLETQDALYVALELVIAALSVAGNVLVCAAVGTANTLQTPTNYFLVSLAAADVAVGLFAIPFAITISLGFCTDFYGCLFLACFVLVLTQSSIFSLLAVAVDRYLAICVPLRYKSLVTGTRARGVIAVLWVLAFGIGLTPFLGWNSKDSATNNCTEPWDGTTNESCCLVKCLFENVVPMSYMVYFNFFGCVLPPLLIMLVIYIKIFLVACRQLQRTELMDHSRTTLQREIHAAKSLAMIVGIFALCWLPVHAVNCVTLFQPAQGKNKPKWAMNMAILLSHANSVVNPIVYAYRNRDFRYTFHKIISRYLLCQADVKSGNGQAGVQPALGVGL
The test can be described thus: Antagonist activity at human adenosine A2B receptor expressed in CHO cells assessed as inhibition of NECA-induced increase in cAMP accumulation preincubated for 10 mins followed by NECA addition by GloSensor cAMP assay. It is filed as functional, cell-based. Background: cAMP levels reflect the balance of adenylyl cyclase and phosphodiesterase activity.

Test [7] concerns the target T1, Adenosine receptor A2a. Kind of test: Displacement of [3H]NECA from human adenosine A2A receptor expressed in CHO cells after 3 hrs by scintillation counting method. The class given is cell-based.
Test [8] has as its target Adenosine receptors; A1 & A3 (Homo sapiens) (UniProt P30542+P0DMS8). The test can be described thus: Selectivity ratio of Ki for displacement of [3H]CCPA from human adenosine A1 receptor expressed in CHO cells to Ki for displacement of [3H]HEMADO from human adenosine A3 receptor expressed in CHO cells. The class given is cell-based.
For test [9], the species on record is Homo sapiens. Kind of test: Selectivity ratio of Ki for [3H]NECA from human adenosine A2A receptor expressed in CHO cells to Ki for displacement of [3H]HEMADO from human adenosine A3 receptor expressed in CHO cells. The class given is cell-based.

T1 sequence (P29274 whole entry): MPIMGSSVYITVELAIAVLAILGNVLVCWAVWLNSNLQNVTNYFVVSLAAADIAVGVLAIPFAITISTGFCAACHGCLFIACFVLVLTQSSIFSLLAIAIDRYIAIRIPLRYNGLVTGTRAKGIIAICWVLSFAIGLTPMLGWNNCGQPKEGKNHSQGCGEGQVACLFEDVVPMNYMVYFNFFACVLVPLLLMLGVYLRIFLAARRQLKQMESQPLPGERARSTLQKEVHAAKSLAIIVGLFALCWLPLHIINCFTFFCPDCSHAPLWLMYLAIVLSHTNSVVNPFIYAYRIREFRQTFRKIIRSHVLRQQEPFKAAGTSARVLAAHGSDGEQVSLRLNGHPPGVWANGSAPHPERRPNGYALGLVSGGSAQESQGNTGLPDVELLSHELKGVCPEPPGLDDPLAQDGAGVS

For the molecule `Nc1nc(-c2cccc(O)c2)nc2sc(-c3ccco3)nc12`, the results for the half-inhibitory concentration (IC50) in test [1] and in [6] were 764 nM and over 30000 nM, respectively. Moreover, the Ki in test [2] is 15.7 nM; in [5] it was 51 nM; in [7] it was 1.64 nM. The Ratio Ki amounted to 9.6 in test [3] and 31.1 in [4].

As to `COc1cccc(-c2nc(N)c3nc(-c4ccccc4)sc3n2)c1`, the results for the Ki in test [2], in test [5] and in [7] were 35.6 nM, 176 nM and 110 nM, respectively. Moreover, the Ratio Ki in test [3] came to 0.3; in test [4] it was 1.6. Moreover, in test [6], the IC50 was over 30000 nM.

`O=C(Nc1nc(-c2ccccc2)nc2sc(-c3ccccc3)nc12)c1ccco1`: the values for the inhibitory constant (Ki) in test [2], in [5] and in [7] were 48 nM, 2280 nM and 3980 nM, respectively. The Ratio Ki in [8] amounted to 47.4; in [9], 83. In addition, the IC50 in test [6] is over 30000 nM.

Consider `O=C(Nc1nc(-c2ccccc2)nc2sc(-c3ccco3)nc12)c1ccccc1`, for which the figures for the inhibition constant Ki in test [2], in test [5] and in test [7] were 32 nM, over 30000 nM and 1140 nM, respectively. Besides, the Ratio Ki is over 900 in test [8] and 35.7 in [9]. Also, in [6], the IC50 is over 30000 nM.

Take `COc1cccc(-c2nc(N)c3nc(-c4ccco4)sc3n2)c1`: the Ki in [2] stood at 4.9 nM; in test [5], 62.3 nM; in [7], 1.9 nM. The Ratio Ki in test [3] turned out to be 2.6; in [4] it was 32.8. Moreover, the IC50 in [6] is over 30000 nM.

For `COc1ccc(-c2nc(N)c3nc(-c4ccco4)sc3n2)cc1`, the Ki in test [2] amounted to 4.66 nM; in test [5], 47.7 nM; in test [7], 11.2 nM. Further, the figures for the Ratio Ki in test [3] and in [4] were 0.4 and 4.2, respectively. For the same molecule, in [6], the IC50 was over 30000 nM.

Regarding `Nc1nc(-c2ccco2)nc2sc(-c3ccco3)nc12`, the IC50 in [1] is 301 nM; in test [6], over 30000 nM. The Ki in test [2] is 99 nM; in test [5], 69 nM; in [7], 3.4 nM. In addition, the Ratio Ki in test [3] worked out at 29.1; in test [4] it was 20.3.

Consider `Nc1nc(-c2ccccc2)nc2sc(-c3ccccc3)nc12`, for which the Ki in test [2] was 84 nM; in test [5], 148 nM; in test [7] it was 19 nM. Also, the Ratio Ki in test [3] amounted to 4.4; in test [8], 1.76; in test [4], 7.8; in test [9], 0.22. Also, the IC50 in [6] is over 30000 nM.

Turning to `Cc1nc(NC(=O)c2ccccc2)c2nc(-c3ccccc3)sc2n1`, the Ki in [2] was 691 nM; in test [5], 935 nM; in test [7], 1950 nM. The Ratio Ki in [8] amounted to 1.3; in [9] it was 2.8. Besides, the IC50 in [6] was over 30000 nM.

Regarding `Cc1ccc(-c2nc(N)c3nc(-c4ccccc4)sc3n2)o1`, the results for the Ki in test [2], in test [5] and in test [7] were 24.9 nM, 28.9 nM and 22.4 nM, respectively. The results for the Ratio Ki in [3] and in test [4] were 1.1 and 1.3, respectively. Further, the half-inhibitory concentration (IC50) in [6] is over 30000 nM.

As for `Nc1nc(-c2cccc(O)c2)nc2sc(-c3ccccc3)nc12`, the IC50 in test [1] was 627 nM; in test [6], over 30000 nM. Moreover, the Ki in test [2] was 190 nM; in test [5] it was 58.5 nM; in test [7], 5 nM. Further, the Ratio Ki in test [3] amounted to 38; in [4], 11.7.

Turning to `N#Cc1cccc(-c2nc(N)c3nc(-c4ccccc4)sc3n2)c1`, the Ki in test [2] is 247 nM; in test [5], 594 nM; in test [7], 33.6 nM. The Ratio Ki in [3] was 7.3; in test [4], 17.7. In addition, in test [6], the IC50 was over 30000 nM.

For `Nc1nc(-c2cccc(CO)c2)nc2sc(-c3ccco3)nc12`, the Ki in test [2] was 0.9 nM; in test [5] it was 28 nM; in test [7], 2.1 nM. The Ratio Ki in test [3] was found to be 0.4; in test [4] it was 13. For the same molecule, the IC50 in test [6] is over 30000 nM.

Take `Nc1nc(-c2cccc(CO)c2)nc2sc(-c3ccccc3)nc12`: the Ki in test [2] was determined as 3.7 nM; in [5], 32 nM; in test [7] it was 53 nM. Also, the Ratio Ki in test [3] was 0.07; in [4] it was 0.6. Besides, in [6], the IC50 was over 30000 nM.

As for `O=C(Nc1nc(-c2ccccc2)nc2sc(-c3ccco3)nc12)c1ccco1`, the Ki in test [2] was 4 nM; in [5] it was 265 nM; in [7] it was 428 nM. Also, the Ratio Ki in [8] was 66.2; in test [9], 107. Moreover, in test [6], the IC50 was over 30000 nM.

Take `COc1ccc(-c2nc(N)c3nc(-c4ccccc4)sc3n2)cc1`: the Ki in test [2] stood at 46.7 nM; in [5] it was 225 nM; in test [7], 115 nM. Also, the values for the Ratio Ki in test [3] and in test [4] were 0.4 and 1.9, respectively. Further, the IC50 in test [6] is over 30000 nM.

On to `O=C(Nc1nc(-c2ccccc2)nc2sc(-c3ccccc3)nc12)c1ccccc1`, for which the Ki in test [2] is 1200 nM; in test [5] it was 1470 nM; in test [7], 104 nM. Moreover, the Ratio Ki in test [8] amounted to 1.2; in test [9], 0.08. In addition, the IC50 in test [6] is over 30000 nM.

Consider `Nc1nc(-c2ccc(CO)cc2)nc2sc(-c3ccco3)nc12`, for which the results for the inhibitory constant (Ki) in test [2], in test [5] and in test [7] were 3.58 nM, 77.7 nM and 7.7 nM, respectively. Moreover, the Ratio Ki turned out to be 0.5 in test [3] and 10.1 in [4]. Besides, the IC50 in test [6] is over 30000 nM.

Turning to `Cc1nc(N)c2nc(-c3ccccc3)sc2n1`, the results for the Ki in [2], in test [5] and in test [7] were 2660 nM, 34 nM and 248 nM, respectively. Also, the Ratio Ki in test [3] was determined as 10.7; in test [8], 0.01; in test [4], 0.14; in test [9] it was 0.09. The IC50 in [6] is over 30000 nM.

For the molecule `Cc1ccc(-c2nc(N)c3nc(-c4ccco4)sc3n2)o1`, the Ki in test [2] is 13.8 nM; in test [5], 45.9 nM; in test [7], 2.36 nM. For the same molecule, the Ratio Ki came to 5.8 in test [3] and 19.4 in test [4]. Besides, in test [6], the IC50 was over 30000 nM.

Turning to `Nc1nc(-c2ccccc2)nc2sc(-c3ccco3)nc12`, the Ki in test [2] was found to be 15 nM; in [5], 33 nM; in test [7], 3 nM. The Ratio Ki in [3] is 5; in test [8], 2.2; in [4], 11; in test [9], 0.2. Also, in [6], the IC50 was over 30000 nM.

With `Nc1nc(-c2ccc(CO)cc2)nc2sc(-c3ccccc3)nc12`, the Ki in test [2] was 8.2 nM; in test [5] it was 82 nM; in [7] it was 82 nM. Moreover, the figures for the Ratio Ki in test [3] and in [4] were 0.1 and 1, respectively. In addition, the IC50 in test [6] was over 30000 nM.

Turning to `N#Cc1cccc(-c2nc(N)c3nc(-c4ccco4)sc3n2)c1`, the inhibition constant (Ki) in [2] amounted to 61.5 nM; in test [5] it was 103 nM; in test [7], 7.7 nM. The Ratio Ki in test [3] is 8; in test [4] it was 13.3. Further, the IC50 in [6] is over 30000 nM.

For the molecule `COc1ccc(C(=O)Nc2nc(C)nc3sc(-c4ccccc4)nc23)cc1`, the Ki in [2] was 91 nM; in [5], 1460 nM; in [7], over 30000 nM. Further, the Ratio Ki is 16 in test [8] and over 300 in [9]. Besides, the half-inhibitory concentration (IC50) in test [6] was over 30000 nM.

`Cc1nc(NC(=O)c2ccc(Cl)cc2)c2nc(-c3ccccc3)sc2n1`: the inhibition constant (Ki) in [2], in test [5] and in test [7] was over 30000 nM in each case. Further, in [6], the IC50 was over 30000 nM.

In general, IC50 refers to the concentration that inhibits the measured activity by half. By Ki is commonly meant a dissociation constant, usually derived from enzyme kinetics or from competition with a known ligand. Read a high Ki as lower affinity.
